# Experimental data from patent US9918981B2, “Liquid buprenorphine formulations” (Insys Development Company, Inc., priority 2013, dated 2018).
# Experiment: Bioavailability of buprenorphine sublingual spray vs Buprenex intramuscular and intravenous injection, crossover study
# Settings: for AUC(0-t) / AUC(inf) / Cmax / Tmax / t½ / λz: overnight fast
# [1] = Intramuscular 0.3 mg (Buprenex injection)
# [2] = Intravenous 0.3 mg (Buprenex bolus injection)
# [3] = after sublingual administration (1 mg spray)
# Text: This was an open-label, 3-treatment, 3-period, 6-sequence, single-dose, randomized crossover study. Eighteen healthy male and female volunteers were randomly assigned to 1 of 6 treatment sequences. Dosing occurred after an overnight fast and there was a minimum 14-day washout between the dosing in two periods.
substance,measurement,setting,value
Buprenorphine,AUC(0-t),[1],4.97 ± 0.90 ng·h/mL
same,AUC(inf),[1],5.50 ± 0.83 ng·h/mL
same,Cmax,[1],1.73 ± 1.08 ng/mL
same,Tmax,[1],0.17 h
same,t½,[1],12.0 ± 5.31 h
same,λz,[1],0.0655 ± 0.0210
same,AUC(0-t),[2],5.09 ± 1.01 ng·h/mL
same,AUC(inf),[2],5.51 ± 1.21 ng·h/mL
same,Cmax,[2],3.95 ± 3.66 ng/mL
same,Tmax,[2],0.083 h
same,t½,[2],9.37 ± 6.49 h
same,λz,[2],0.1028 ± 0.0641
same,absolute bioavailability based on AUC(0-t),[3],41.03%
same,absolute bioavailability based on AUC(inf),[3],42.57%
